This passage reports GI50 and TGI results from PubChem BioAssay (NCI).

The structures appear in SMILES notation.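 Cultured in 96-well plates, cells were exposed to test compound for 48 hours across five concentrations. GI50: concentration for 50% inhibition of growth. TGI denotes the concentration required for complete inhibition of growth.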

Test systems include CAKI-1 renal; EKVX NSCLC; K-562 leukemia; KM12 colon; MDA-MB-231 breast; NCI/ADR-RES ovarian; PC-3 prostate; SF-295 CNS; SK-OV-3 ovarian; UO-31 renal.
Common to all, as to assay: NCI tumour cell line growth inhibition, 48 h

As to `COc1ccc(C2=C(c3ccc(OC)cc3)C(=O)N3CCCC3C2)cc1` (centres undefined), the GI50 with CAKI-1 renal is 21.1 µM; in the test on EKVX NSCLC, 30.2 µM; in the test on KM12 colon, 9.26 µM; in the test with MDA-MB-231 breast, 25.4 µM; with NCI/ADR-RES ovarian it was 10.3 µM; in the test with PC-3 prostate, 12.4 µM. For the same compound, the GI50 with SF-295 CNS is 9.26 µM; in the test on SK-OV-3 ovarian, 26.4 µM; with UO-31 renal it was 19.7 µM. The TGI with CAKI-1 renal was above 100 µM; in the test with EKVX NSCLC, above 100 µM; in the test on K-562 leukemia, above 100 µM; in the test with KM12 colon it was above 100 µM; in the test with MDA-MB-231 breast, above 73.9 µM; in the test with NCI/ADR-RES ovarian it was above 100 µM. Moreover, the TGI with PC-3 prostate, in the test on SF-295 CNS, in the test on SK-OV-3 ovarian and in the test with UO-31 renal was above 100 µM each time.

Take `CC(C(=O)O)c1cccc(Oc2ccccc2)c1` (centres undefined): the GI50 in the test with CAKI-1 renal, in the test with EKVX NSCLC, with K-562 leukemia, with KM12 colon, in the test with MDA-MB-231 breast and with NCI/ADR-RES ovarian was above 100 µM in each case. Besides, the GI50 in the test with PC-3 prostate, in the test with SF-295 CNS, with SK-OV-3 ovarian and in the test with UO-31 renal was above 100 µM in each case. In addition, the TGI in the test with CAKI-1 renal, in the test with EKVX NSCLC, in the test with K-562 leukemia, with KM12 colon, in the test on MDA-MB-231 breast and with NCI/ADR-RES ovarian was above 100 µM each time. The TGI with PC-3 prostate, with SF-295 CNS, with SK-OV-3 ovarian and in the test on UO-31 renal was above 100 µM throughout.

For `O=C1CCC/C=C\C[C@H]2C=CC(=O)/C2=C/C[C@H](C/C=C\CC(F)(F)F)O1`, the GI50 was 0.417 µM in the test on CAKI-1 renal; 0.893 µM in the test with EKVX NSCLC; 0.503 µM in the test on K-562 leukemia; 0.299 µM in the test with KM12 colon; 0.722 µM in the test with MDA-MB-231 breast; 0.627 µM with NCI/ADR-RES ovarian. Moreover, the GI50 in the test with PC-3 prostate is 0.574 µM; with SF-295 CNS it was 0.401 µM; in the test with SK-OV-3 ovarian, 0.757 µM; with UO-31 renal, 0.298 µM. Besides, the TGI came out at 1.28 µM with CAKI-1 renal; 3.42 µM in the test with EKVX NSCLC; 2.6 µM with K-562 leukemia; 0.635 µM in the test with KM12 colon; 5.63 µM in the test with MDA-MB-231 breast; 16.7 µM with NCI/ADR-RES ovarian. Besides, the TGI stood at 2.71 µM in the test on PC-3 prostate, 1.13 µM with SF-295 CNS, 3.02 µM with SK-OV-3 ovarian and 0.624 µM in the test with UO-31 renal.

Consider `COc1ccccc1Nc1ncc(-c2ccccc2)o1`, for which the GI50 is above 24 µM in the test on CAKI-1 renal; above 25 µM in the test on EKVX NSCLC; above 25 µM with K-562 leukemia; 9.77 µM with KM12 colon; above 25 µM in the test on MDA-MB-231 breast; above 25 µM with NCI/ADR-RES ovarian. Besides, the GI50 was above 25 µM with PC-3 prostate, above 25 µM in the test with SF-295 CNS, above 25 µM with SK-OV-3 ovarian and 13.7 µM with UO-31 renal. Moreover, the TGI with CAKI-1 renal, in the test on EKVX NSCLC, in the test on K-562 leukemia, in the test on KM12 colon, in the test with MDA-MB-231 breast and in the test with NCI/ADR-RES ovarian was above 25 µM each time. Also, the TGI in the test with PC-3 prostate, in the test with SF-295 CNS, with SK-OV-3 ovarian and in the test on UO-31 renal was above 25 µM each time.

`S=c1[nH]c2c(Cl)c(Cl)c(Cl)c(Cl)c2[nH]1`: the TGI in the test on CAKI-1 renal came out at 64.7 µM; in the test with EKVX NSCLC, 37.4 µM; in the test with K-562 leukemia, 38.4 µM; with KM12 colon it was 33.8 µM; in the test with MDA-MB-231 breast it was 47.9 µM; with NCI/ADR-RES ovarian, 46.5 µM. The TGI with PC-3 prostate was found to be 77.6 µM; with SF-295 CNS, 47.1 µM; in the test with SK-OV-3 ovarian, 55.3 µM; in the test on UO-31 renal, 43.2 µM.

With `COC(=O)c1ccc2c(c1)/C(=C\c1cc(Br)c(O)c(Br)c1)C(=O)N2`, the GI50 is 4.68 µM with CAKI-1 renal; 15.8 µM with EKVX NSCLC; 8.14 µM in the test with K-562 leukemia; 6.79 µM with KM12 colon; 6.83 µM in the test with MDA-MB-231 breast; 15.7 µM in the test with NCI/ADR-RES ovarian. For the same compound, the GI50 is 7.68 µM in the test with PC-3 prostate, 5.1 µM with SF-295 CNS, 6.57 µM in the test with SK-OV-3 ovarian and 6.84 µM in the test on UO-31 renal. Further, the TGI with CAKI-1 renal, in the test on EKVX NSCLC, with K-562 leukemia, with KM12 colon, with MDA-MB-231 breast and with NCI/ADR-RES ovarian was above 25 µM throughout. The TGI in the test on PC-3 prostate is above 25 µM; with SF-295 CNS, above 24 µM; in the test on SK-OV-3 ovarian, above 25 µM; with UO-31 renal it was above 25 µM.
